# Assay results as given in patent US20230210154A1, “SWEET PROTEIN MUTANTS FROM TRUFFLE” (MYCOTECHNOLOGY, INC., priority 2021, published 2023).
# Where two headings read alike, the source gives them in different places. Residues, ends and D or L forms follow the SMILES beside them.
# Columns and labels:
# [1] = system: sweet taste; test: CATA time intensity of the sweet sensation, trained panel; format: in vivo, human
# Method: Evaluation of thaumatin, sucrose, and SEQ ID NO:21 was carried out using a CATA (click all that apply) time intensity of the sweet sensation of named analytes in water at 0.045 mg/ml for proteins and 10% sucrose. Methodology: Time Intensity Technique; Data collection software: EyeQuestion, responses recorded every 2.57 seconds; Scaling Method: a 15-point sweet scale, e.g. score 5=5% sucrose, score 10=10% sucrose; Evaluation Protocol: small volume sip, tilt and spit test. There were 3-6 panelists and 2 replicates. All samples were blinded and presented with randomized 3-digit codes. Training Strategies: An intense training on sweet scale over 6 weeks on 15-point sweet scale to confidently assign sweet values. Due to unique sweet behavioral patterns, it is necessary to train time intensity principles over 3 weeks. Samples were tasted with a stopwatch to note times and help reach a consensus. # of Panelists: 3-6, # of replications: 2. All samples were blinded and presented with randomized 3-digit codes. Statistical analysis: due to the small # of panelists, a statistical analysis cannot be performed.
# [2] = system: sweet taste; test: Concentration-response functions for sweet taste (Opertech Bio); format: in vivo; conditions: for Relative to Sucrose (mM): equivalency to sucrose on a molar basis; for Relative to Sucrose (mg/ml): equivalency to sucrose on a weight basis; for EC50: half-maximal sweet taste response
# Method: Opertech Bio (Philadelphia, Pa.) performed a quantitative characterization of the concentration-dependence of the taste properties of the purified his-tagged mycodulcein (SEQ ID NO:21) obtained from E. coli as described in Example 5 and purified as described in Example 4. The sweet-taste potency and relative efficacy of mycodulcein was compared with sucrose and with other sweeteners thaumatin, rebaudioside A, and aspartame. Control standards were solutions of 200 mM sucrose, 100 mM NaCl, 0.5 mM quinine, and 10 mM citric acid. […] Each data point in the curves for mycodulcein, aspartame, thaumatin, rebaudioside A was calculated as the average across 32 replicates and averaged across 16 replicates for the sucrose curve; error bars are SEM. Points for water and sucrose controls were similarly calculated as the average across 128 and 64 replicates, respectively. Curves were fit by non-linear regression.
# The concentrations that elicit half-maximal sweet taste response (EC50s, or potencies) were derived from the nonlinear regression. […] Also provided are the equivalencies to sucrose on a molar basis and on a weight basis.
# [3] = non-linear regression, read-out: EC50 (molar units)
"EC50 [2, 3] [mM]",EC50 ([2]; read-out: EC50) [µg/mL],Compound,"maximum intensity (Imax) higher than sucrose ([1]; 15 point scale, proteins 0.045 mg/ml in water vs 10% sucrose)",Relative to Sucrose (mM) [2],Relative to Sucrose (mg/ml) [2],time to approach threshold sweetness (Intensity <1) ([1]; 10% sucrose in water) [s]
,,thaumatin,approximately 1 point,,,
36,12300,OC[C@H]1O[C@@](CO)(O[C@H]2O[C@H](CO)[C@@H](O)[C@H](O)[C@H]2O)[C@@H](O)[C@@H]1O [sucrose],,1,1,162
0.182,53.2,COC(=O)[C@H](Cc1ccccc1)NC(=O)[C@@H](N)CC(=O)O [aspartame] (H-Asp-Phe-OMe),,198,231,
